This experiment concerns the target T1, p300 (Homo sapiens, UniProt Q09472).
T1 construct: host or cells: A549 P300 HiBit cells
Kind of experiment: P300 degradation, HiBit technology in A549 P300 HiBit cells (2 h). As to conditions: 2 hrs post treatment; for Dmax: A549, A549 P300 HiBit cells; for DC50: A549 P300 HiBit cells. The format is cell-based. The essentials: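 Degradation potency and Dmax came from luminescence after 10 min room-temperature lysis with HiBit detection buffer. Beforehand, HiBit-tagged A549 lines received serial compound dilutions (10 mM DMSO stocks) at 37 °C, 5% CO2. CBP cells were read at 24 h, p300 cells at 2 h.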
Background: With HiBiT, luminescence reflects the tagged protein that the partner subunit can reach.

Experimental findings from patent publication US20250114345A1, “COMPOUNDS AND COMPOSITIONS AS CBP/P300 DEGRADERS AND USES THEREOF” (Oncopia Therapeutics, Inc. d/b/a/ SK Life Science Labs, priority 2023, published 2025) are described below.

Bounds are passed on as bounds.

T1 sequence (Q09472 whole entry): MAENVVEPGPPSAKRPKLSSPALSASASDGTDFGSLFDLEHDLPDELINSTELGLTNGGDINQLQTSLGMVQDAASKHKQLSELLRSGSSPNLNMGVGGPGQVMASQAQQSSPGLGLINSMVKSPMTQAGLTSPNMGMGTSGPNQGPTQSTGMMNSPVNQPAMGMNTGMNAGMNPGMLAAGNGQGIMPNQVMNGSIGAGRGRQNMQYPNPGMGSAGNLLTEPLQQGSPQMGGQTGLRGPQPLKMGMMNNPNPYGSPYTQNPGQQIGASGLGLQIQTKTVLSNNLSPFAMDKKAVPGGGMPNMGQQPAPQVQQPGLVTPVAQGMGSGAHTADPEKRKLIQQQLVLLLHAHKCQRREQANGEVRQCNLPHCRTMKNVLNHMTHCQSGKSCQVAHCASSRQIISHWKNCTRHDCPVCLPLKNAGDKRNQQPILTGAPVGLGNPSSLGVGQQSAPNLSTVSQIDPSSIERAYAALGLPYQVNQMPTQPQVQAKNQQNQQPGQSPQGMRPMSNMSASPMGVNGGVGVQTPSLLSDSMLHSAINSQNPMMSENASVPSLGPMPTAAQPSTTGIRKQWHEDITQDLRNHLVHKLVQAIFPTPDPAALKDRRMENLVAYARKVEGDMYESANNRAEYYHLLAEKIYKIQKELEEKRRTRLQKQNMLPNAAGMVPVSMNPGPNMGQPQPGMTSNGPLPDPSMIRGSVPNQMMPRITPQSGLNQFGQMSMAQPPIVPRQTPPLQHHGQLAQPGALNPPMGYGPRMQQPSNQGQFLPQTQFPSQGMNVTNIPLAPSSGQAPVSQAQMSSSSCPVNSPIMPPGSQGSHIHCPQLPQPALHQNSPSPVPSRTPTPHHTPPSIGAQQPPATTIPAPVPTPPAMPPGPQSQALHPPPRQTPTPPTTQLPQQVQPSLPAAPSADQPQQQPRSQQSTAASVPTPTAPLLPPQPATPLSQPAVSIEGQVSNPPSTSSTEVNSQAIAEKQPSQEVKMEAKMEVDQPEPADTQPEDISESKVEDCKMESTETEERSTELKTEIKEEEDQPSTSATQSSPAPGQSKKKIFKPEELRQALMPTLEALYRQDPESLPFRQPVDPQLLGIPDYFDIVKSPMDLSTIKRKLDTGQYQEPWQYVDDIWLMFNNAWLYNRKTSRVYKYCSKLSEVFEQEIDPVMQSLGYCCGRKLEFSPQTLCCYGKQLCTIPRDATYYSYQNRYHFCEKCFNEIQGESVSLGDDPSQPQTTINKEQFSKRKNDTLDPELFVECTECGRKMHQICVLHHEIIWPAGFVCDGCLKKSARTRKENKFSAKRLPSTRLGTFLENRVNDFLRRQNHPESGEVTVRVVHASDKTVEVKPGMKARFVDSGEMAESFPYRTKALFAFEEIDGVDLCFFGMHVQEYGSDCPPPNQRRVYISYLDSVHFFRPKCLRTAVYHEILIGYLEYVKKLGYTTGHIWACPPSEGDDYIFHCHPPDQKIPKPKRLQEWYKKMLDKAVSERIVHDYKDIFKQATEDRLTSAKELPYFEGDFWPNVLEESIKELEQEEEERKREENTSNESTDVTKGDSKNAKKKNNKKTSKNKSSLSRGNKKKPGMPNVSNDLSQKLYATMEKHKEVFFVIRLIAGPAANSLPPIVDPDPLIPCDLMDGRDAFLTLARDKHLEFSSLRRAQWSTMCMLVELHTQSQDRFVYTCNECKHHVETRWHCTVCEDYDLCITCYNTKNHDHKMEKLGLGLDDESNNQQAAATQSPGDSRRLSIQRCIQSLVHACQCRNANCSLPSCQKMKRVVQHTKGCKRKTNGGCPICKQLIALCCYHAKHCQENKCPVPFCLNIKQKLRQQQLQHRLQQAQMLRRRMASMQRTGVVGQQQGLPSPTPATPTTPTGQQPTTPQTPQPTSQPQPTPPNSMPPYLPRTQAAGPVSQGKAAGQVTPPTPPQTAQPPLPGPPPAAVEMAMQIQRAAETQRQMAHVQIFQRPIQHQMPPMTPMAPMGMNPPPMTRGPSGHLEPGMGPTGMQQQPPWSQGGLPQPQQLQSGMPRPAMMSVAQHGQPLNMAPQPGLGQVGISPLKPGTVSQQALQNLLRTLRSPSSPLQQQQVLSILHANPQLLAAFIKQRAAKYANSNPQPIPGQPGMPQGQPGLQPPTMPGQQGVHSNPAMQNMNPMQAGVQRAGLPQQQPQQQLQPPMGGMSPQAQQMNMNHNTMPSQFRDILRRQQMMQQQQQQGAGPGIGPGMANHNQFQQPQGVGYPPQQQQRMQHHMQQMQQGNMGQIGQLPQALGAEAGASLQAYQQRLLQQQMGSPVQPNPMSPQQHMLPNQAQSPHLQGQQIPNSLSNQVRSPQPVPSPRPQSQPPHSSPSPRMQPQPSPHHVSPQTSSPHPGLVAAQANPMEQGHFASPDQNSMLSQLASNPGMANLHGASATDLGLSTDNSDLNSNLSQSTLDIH

In general, Dmax refers to the largest share of the target that was removed. Low values mean a partial loss of target, high ones a fuller loss of target. A word on the DC50: it is the midpoint of the concentration-degradation curve. Read a high DC50 as degradation only at high concentration. With `COc1cc2cnn(C3CCC(=O)NC3=O)c2cc1C#CCNC(=O)c1ccc(-c2cc3cccc(-c4cc(C(C)C)c5c(c4)n(C)c(=O)n5C)c3cn2)cn1` (centres unmarked) [Example A27, N-(3-(1-(2,6-Dioxopiperidin-3-yl)-5-methoxy-1H-indazol-6-yl)prop-2-yn-1-yl)-5-(8-(7-isopropyl-1,3-dimethyl-2-oxo-2,3-dihydro-1H-benzo[d]imidazol-5-yl)isoquinolin-3-yl)picolinamide], the Dmax lay in the range of 60 to 79% and the DC50 lay in the range of 1 to 9.9 nM.
The compound `CC(C)c1cc(-c2cccc3cc(-c4ccc(C(=O)NCc5ccc(-c6cnn(C7CCC(=O)NC7=O)c6)cc5)nc4)ncc23)cc2c1n(C)c(=O)n2C` (centres unmarked) [Example A33, N-(4-(1-(2,6-Dioxopiperidin-3-yl)-1H-pyrazol-4-yl)benzyl)-5-(8-(7-isopropyl-1,3-dimethyl-2-oxo-2,3-dihydro-1H-benzo[d]imidazol-5-yl)isoquinolin-3-yl)picolinamide] displayed a Dmax below 20% and a DC50 above 1000 nM.
The compound `Cc1cc(-c2cnc(Nc3cc(C4CCOCC4)c4c(c3)n(C)c(=O)n4C)cn2)cnc1C(=O)NCC#Cc1cc2c(C3CCC(=O)NC3=O)cccc2o1` (centres unmarked) [Example A193] yielded a Dmax below 20% and a DC50 above 1000 nM.
Compound `Cc1cc2c(N3CCCc4nc(-c5ccc(C(=O)NCC#Cc6ccc7occ(C8CCC(=O)NC8=O)c7c6)nc5)ncc43)cc(C(C)C)cc2n(C)c1=O` (centres unmarked) [Example B125, N-(3-(3-(2,6-dioxopiperidin-3-yl)benzofuran-5-yl)prop-2-yn-1-yl)-5-(5-(7-isopropyl-1,3-dimethyl-2-oxo-1,2-dihydroquinolin-5-yl)-5,6,7,8-tetrahydropyrido[3,2-d]pyrimidin-2-yl)picolinamide] showed a Dmax above 80% and a DC50 of 1 to 9.9 nM.
Regarding `Cc1cc(-c2ncc(Nc3cc(C4CCOCC4)c4c(c3)n(C)c(=O)n4C)cn2)cnc1C(=O)NCC#Cc1cc2c(C3CCC(=O)NC3=O)cccc2o1` (centres unmarked) [Example A236, 5-(5-((1,3-dimethyl-2-oxo-7-(tetrahydro-2H-pyran-4-yl)-2,3-dihydro-1H-benzo[d]imidazol-5-yl)amino)pyrimidin-2-yl)-N-(3-(4-(2,6-dioxopiperidin-3-yl)benzofuran-2-yl)prop-2-yn-1-yl)-3-methylpicolinamide], the Dmax was 40 to 59% and the DC50 lay within 10 to 99 nM.
As for `Cc1cc2c(N3CCCc4nc(-c5ccc(C(=O)NCC#Cc6cc7c(C8CCC(=O)NC8=O)cccc7o6)nc5)ncc43)cc(C3CC3)cc2n(C)c1=O` (centres unmarked) [Example B171, 5-(5-(7-cyclopropyl-1,3-dimethyl-2-oxo-1,2-dihydroquinolin-5-yl)-5,6,7,8-tetrahydropyrido [3,2-d]pyrimidin-2-yl)-N-(3-(4-(2,6-dioxo-piperidin-3-yl)benzofuran-2-yl)prop-2-yn-1-yl)picolinamide], the Dmax was above 80% and the DC50 is 1 to 9.9 nM.
The compound `CN1C2CCC1CN(c1nc(-c3cccc4cc(-c5ccc(C(=O)NCC#Cc6ccc7occ(C8CCC(=O)NC8=O)c7c6)nc5)ncc34)cc3c1n(C)c(=O)n3C)C2` (centres unmarked) [Example A67, 5-(8-(1,3-dimethyl-4-(8-methyl-3,8-diazabicyclo[3.2.1]octan-3-yl)-2-oxo-2,3-dihydro-1H-imidazo [4,5-c]pyridin-6-yl)isoquinolin-3-yl)-N-(3-(3-(2,6-dioxopiperidin-3-yl)benzofuran-5-yl)prop-2-yn-1-yl)picolinamide] gave a Dmax of 60 to 79% and a DC50 of 1 to 9.9 nM.
Take `Cc1cc2c(N3CCCc4nc(-c5ccc(C(=O)NCC#Cc6cc7c(C89CC(C8)C(=O)NC9=O)cccc7o6)nc5)ncc43)cc(C3CCOCC3)cc2n(C)c1=O` [Example B97, 5-(5-(1,3-dimethyl-2-oxo-7-(tetrahydro-2H-pyran-4-yl)-1,2-dihydroquinolin-5-yl)-5,6,7,8-tetrahydropyrido[3,2-d]pyrimidin-2-yl)-N-(3-(4-(2,4-dioxo-3-azabicyclo[3.1.1]heptan-1-yl)benzofuran-2-yl)prop-2-yn-1-yl)picolinamide]: the Dmax is below 20% and the DC50 lay in the range of 100 to 999 nM.
For `CC(C)c1cc(-c2cccc3cc(-c4ccc(C(=O)NCC#Cc5cnc6occ(C7CCC(=O)NC7=O)c6c5)nc4)ncc23)cc2c1n(C)c(=O)n2C` (centres unmarked) [Example A196, N-(3-(3-(2,6-dioxo-piperidin-3-yl)furo[2,3-b]pyridin-5-yl)prop-2-yn-1-yl)-5-(8-(7-isopropyl-1,3-dimethyl-2-oxo-2,3-dihydro-1H-benzo[d]imidazol-5-yl)isoquinolin-3-yl)picolinamide], the Dmax is above 80% and the DC50 fell in the range of 1 to 9.9 nM.
In turn, `Cc1cc(-c2ccc(N(C)c3cc(C(C)C)c4c(c3)n(C)c(=O)n4C)cn2)cnc1C(=O)NCC#Cc1cc(NC2CCC(=O)NC2=O)nn1C` (centres unmarked) [Example A154, N-(3-(3-((2,6-dioxo-piperidin-3-yl)amino)-1-methyl-1H-pyrazol-5-yl)prop-2-yn-1-yl)-5-((7-isopropyl-1,3-dimethyl-2-oxo-2,3-dihydro-1H-benzo [d]imidazol-5-yl) (methyl)amino)-5′-methyl-[2,3′-bipyridine]-6′-carboxamide] registered a Dmax of 60 to 79% and a DC50 of 10 to 99 nM.
Compound `Cc1cc2c(N3CCOc4cc(-c5ccc(C(=O)NCC#Cc6ccc7occ(C8CCC(=O)NC8=O)c7c6)nc5)c(F)cc43)cc(F)cc2n(C)c1=O` (centres unmarked) [Example B100, N-(3-(3-(2,6-dioxopiperidin-3-yl)benzofuran-5-yl)prop-2-yn-1-yl)-5-(6-fluoro-4-(7-fluoro-1,3-dimethyl-2-oxo-1,2-dihydroquinolin-5-yl)-3,4-dihydro-2H-benzo[b][1,4]oxazin-7-yl) picolinamide] came in with a Dmax above 80% and a DC50 of 1 to 9.9 nM.
On to `COC1CN(c2cc3c(cc(C)c(=O)n3C)c(-c3cccc4cc(-c5ccc(C(=O)NCC#Cc6ccc7occ(C8CCC(=O)NC8=O)c7c6)nc5)ncc34)n2)C1` (centres unmarked) [Example B146, N-(3-(3-(2,6-dioxopiperidin-3-yl)benzofuran-5-yl)prop-2-yn-1-yl)-5-(8-(7-(3-methoxyazetidin-1-yl)-1,3-dimethyl-2-oxo-1,2-dihydro-1,6-naphthyridin-5-yl)isoquinolin-3-yl) picolinamide], for which the Dmax is above 80% and the DC50 was 1 to 9.9 nM.
`Cc1cc(-c2cnc(N(C)c3cc(C4CCOCC4)c4c(c3)n(C)c(=O)n4C)cn2)cnc1C(=O)NCC#Cc1ccc2occ(C3CCC(=O)NC3=O)c2c1` (centres unmarked) [Example A128, 5-(5-((1,3-dimethyl-2-oxo-7-(tetrahydro-2H-pyran-4-yl)-2,3-dihydro-1H-benzo[d]imidazol-5-yl)(methyl)amino)pyrazin-2-yl)-N-(3-(3-(2,6-dioxopiperidin-3-yl)benzofuran-5-yl)prop-2-yn-1-yl)-3-methylpicolinamide] showed a Dmax above 80% and a DC50 of 1 to 9.9 nM.
The compound `Cc1cc(-c2ncc(N(C)c3cc(C4CCOCC4)c4oc(=O)n(C)c4c3)cn2)cnc1C(=O)NCC#Cc1ccc2occ(C3CCC(=O)NC3=O)c2c1` (centres unmarked) [Example A114, N-(3-(3-(2,6-dioxo-piperidin-3-yl)benzofuran-5-yl)prop-2-yn-1-yl)-3-methyl-5-(5-(methyl (3-methyl-2-oxo-7-(tetrahydro-2H-pyran-4-yl)-2,3-dihydrobenzo[d]oxazol-5-yl)amino)pyrimidin-2-yl)picolinamide] had a Dmax below 20% and a DC50 above 1000 nM.
In the case of `Cc1cc2c(N3CCCc4nc(-c5ccc(C(=O)NCC#Cc6ccc7occ(C8CCC(=O)NC8=O)c7c6)nc5)ncc43)nc(C(C)C)cc2n(C)c1=O` (centres unmarked) [Example B130, N-(3-(3-(2,6-dioxopiperidin-3-yl)benzofuran-5-yl)prop-2-yn-1-yl)-5-(5-(7-isopropyl-1,3-dimethyl-2-oxo-1,2-dihydro-1,6-naphthyridin-5-yl)-5,6,7,8-tetrahydropyrido[3,2-d]pyrimidin-2-yl)picolinamide], the Dmax was 60 to 79% and the DC50 was 1 to 9.9 nM.
On the same counts, the results for `Cc1cc(-c2ncc3c(n2)CCCN3c2cc(C)c3c(c2)n(C)c(=O)n3C)cnc1C(=O)NCC#Cc1cc2c(C3CCC(=O)NC3=O)cccc2o1` (centres unmarked) [Example A227, N-(3-(4-(2,6-dioxo-piperidin-3-yl)benzofuran-2-yl)prop-2-yn-1-yl)-3-methyl-5-(5-(1,3,7-trimethyl-2-oxo-2,3-dihydro-1H-benzo [d]imidazol-5-yl)-5,6,7,8-tetrahydro-pyrido[3,2-d]pyrimidin-2-yl)picolinamide] are above 80% and 1 to 9.9 nM.
As to `COc1cc(-c2cc3cccc(-c4ccc5c(c4)n(C)c(=O)n5C)c3cn2)cnc1C(=O)NCC#Cc1ccc2occ(C3CCC(=O)NC3=O)c2c1` (centres unmarked) [Example A148, 5-(8-(1,3-dimethyl-2-oxo-2,3-dihydro-1H-benzo[d]imidazol-5-yl)isoquinolin-3-yl)-N-(3-(3-(2,6-dioxo-piperidin-3-yl)benzofuran-5-yl)prop-2-yn-1-yl)-3-methoxypicolinamide], the Dmax is above 80% and the DC50 was in the range of 1 to 9.9 nM.
In the case of `Cc1cc(-c2cc(F)c(Nc3cc(C4CCOCC4)c4c(c3)n(C)c(=O)n4C)cc2C(F)(F)F)cnc1C(=O)NCC#Cc1cc2c(C3CCC(=O)NC3=O)cccc2o1` (centres unmarked) [Example A244, 5-(4-((1,3-dimethyl-2-oxo-7-(tetrahydro-2H-pyran-4-yl)-2,3-dihydro-1H-benzo[d]imidazol-5-yl)amino)-5-fluoro-2-(trifluoromethyl)phenyl)-N-(3-(4-(2,6-dioxopiperidin-3-yl)benzofuran-2-yl)prop-2-yn-1-yl)-3-methylpicolinamide], the Dmax is 40 to 59% and the DC50 lay within 10 to 99 nM.
In the case of `CC(C)c1cc(-c2cccc3cc(-c4ccc(C(=O)NCC#Cc5ccc6c(c5)N(C5CCC(=O)NC5=O)CC6)nc4)ncc23)cc2c1n(C)c(=O)n2C` (centres unmarked) [Example A184, N-(3-(1-(2,6-dioxo-piperidin-3-yl)indolin-6-yl)prop-2-yn-1-yl)-5-(8-(7-isopropyl-1,3-dimethyl-2-oxo-2,3-dihydro-1H-benzo[d]imidazol-5-yl)isoquinolin-3-yl)picolinamide], the Dmax was above 80% and the DC50 lay in the range of 10 to 99 nM.
